Publication PMC7249060, “The Antiproliferative Effects of Flavonoid MAO Inhibitors on Prostate Cancer Cells” (Molecules, 2020)

Legend:
LNCaP cells [1] = experiment: cells; format: cell-based, human; settings: for effect on LNCaP proliferation and cell morphology: 20 μM, five days, phase contrast; for viability at 20 µM: Homo sapiens, LNCaP, 120 h, read-out: percentage of treated group compared to the viable control
Experimental: The morphological alterations of the LNCaP cells were imaged, and their percentage proliferation rate was measured after five-days of incubation. The method of subculture and treatment were similar to our antiproliferation assay, with slight modifications. Briefly, the cells were seeded in transparent flat-bottom 96-well microplates with 10,000 cells/175 μL/well of […] experimental media. Following overnight incubation, 20 μM concentration level (~2 × IC50) for each of KKR11, 20, 7, 2A, 21, and the standard PIRL were added to the cells for a total volume of 200 μL/well and re-incubated for five-days. On the day of imaging, 20X phase-contrast images of lid-covered treated and control cells were captured using an inverted microscope. Resazurin was then added for viability detection, and the imaged cells in the wells were read after 4.5 h on the Bio-Tek Synergy HTX Multi-reader.

PC3 cells = experiment: Antiproliferation screen assay, resazurin, 72 h; format: cell-based, human; settings: 50 μM
Experimental: (§1) In this screen, we examined the growth inhibitory effects of all synthesized KKRs on the three human PCa cell lines LNCaP, DU145, and PC3. The antiproliferative clinical drug TAX of 0.25 μM was used as a positive control. Additionally, different standards of MAO-Is and FLUT were tested for their effect on the LNCaP cells. Briefly, the procedures and materials used were the same as for the viability assay except for the following—cultured cells were seeded at 10,000 cells/175-µL/well related experimental media, and the resazurin solution was added after 72 h of incubation with the compounds of 50 μM each.

LNCaP cells [2] = experiment: Antiproliferation screen assay, resazurin, 72 h; format: cell-based, human; settings: 50 μM
Experimental: as §1

DU145 cells = experiment: Antiproliferation screen assay, resazurin, 72 h; format: cell-based, human; settings: 50 μM
Experimental: as §1

hMAO-A = biological target: T1, hMAO-A (Homo sapiens, UniProt P21397); experiment: MAO-Glow inhibitory potency (IC50) and relative selectivity; format: biochemical; settings: for MAO isozyme selectivity: comparison of hMAO-A and hMAO-B IC50s; for IC50: mean ± SEM, at least two experiments, LDS 40 μM; for hMAO-A relative selectivity (RSA): RSA = hMAO-B IC50/hMAO-A IC50
T1 construct: purchased Sigma-Aldrich Co. (St. Louis, MO, USA)
T1 sequence (P21397 1-527): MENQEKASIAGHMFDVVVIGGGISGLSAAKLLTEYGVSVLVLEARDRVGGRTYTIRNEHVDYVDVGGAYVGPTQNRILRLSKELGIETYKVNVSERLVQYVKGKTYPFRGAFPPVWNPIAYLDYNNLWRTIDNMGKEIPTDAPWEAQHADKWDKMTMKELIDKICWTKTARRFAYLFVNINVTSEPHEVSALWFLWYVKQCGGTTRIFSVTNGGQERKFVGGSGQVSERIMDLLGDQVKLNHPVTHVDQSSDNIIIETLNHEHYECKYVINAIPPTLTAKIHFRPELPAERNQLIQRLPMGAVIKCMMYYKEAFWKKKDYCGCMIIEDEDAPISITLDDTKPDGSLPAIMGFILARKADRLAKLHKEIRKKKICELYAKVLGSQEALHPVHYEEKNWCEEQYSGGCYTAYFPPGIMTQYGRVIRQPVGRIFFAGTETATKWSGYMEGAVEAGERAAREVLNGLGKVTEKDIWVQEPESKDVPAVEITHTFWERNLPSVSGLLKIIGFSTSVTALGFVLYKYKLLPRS
Experimental: (§2) The inhibitory effects of the synthesized KKRs of hMAO-A and B were tested by measuring the decrease in arbitrary light units (ALU) signal produced by the optimized isozymes using the MAO-Glow™ Assay at 37 °C. In this assay, DMSO stock for each KKR compound was diluted with a reaction buffer of pH 7.4 to make a 4X working solution for a maximum final concentration of 100 μM and ≤1% DMSO. The experiments were run in the absence and presence of 4X the miscellaneous standards of MAO-BIs (DEP, PARG, and SAF) and MAO-AIs (PIRL and CLORG), with similar concentrations. In white opaque 96-well microplates, 12.5 μL of each compound was plated at RT and was followed by 25 μL of 2X cold hMAO-A or hMAO-B, for a final concentration of 0.44 U/mL. A related buffer substituted each isozyme to make the blank wells and substituted each compound to make the negative control wells. Following this, we added 12.5 μL of 4X LDS to make a final substrate concentration of 40- and 4-μM for hMAO-A and hMAO-B, respectively. All screen plates were incubated at 37 °C for 60 min. The plates of 50 μL/well were then taken out from the incubator, and their reactions were stopped by an equal volume of 50 μL of reporter luciferin detection reagent (RLDR). After 30 min, the luminescence signals for all plates were read on a Synergy HTX Multi-reader from Bio-Tek (Winooski, VT, USA).
(§3) The experiments were performed in the presence and absence of the standard PILR. In white opaque 96-well plates, each KKR compound was serially diluted with a reaction buffer of pH 7.4 at the highest possible maximum final concentration, and the least used DMSO (<2%). In blank wells, the related reaction buffer substituted the isozyme. In negative control wells, the reaction buffer substituted each compound concentration. Then, the procedure was carried out as mentioned above (Section 4.2.2), and the reaction was detected on the Bio-Tek Synergy HTX Multi-Reader. The IC50 of each KKR on both isozymes was determined and subsequently the RSA and RSB was calculated.
(§4) Statistical analyses were performed using the GraphPad Prism program (version 6.07 for Windows) from the GraphPad Prism Software Incorporated (San Diego, CA, USA). All data points and parameters were expressed as the mean ± SEM. All parameters were calculated from non-linear and linear regressions with the best R^2 values, no less than 93%. The inhibitory concentration of 50% of isozyme (IC50) of each compound was obtained by the interpolation of a normalized variable slope logarithmic curve. The RSA values of the selected compounds were calculated from their IC50 average means following the equation RSA = hMAO − B IC50/Hmao − A IC50(1)

hMAO-B = biological target: T2, hMAO-B (Homo sapiens, UniProt P27338); experiment: MAO-Glow inhibitory potency (IC50); format: biochemical; settings: mean ± SEM, at least two experiments; LDS 4 μM
T2 construct: purchased Sigma-Aldrich Co. (St. Louis, MO, USA)
T2 sequence (P27338 1-520): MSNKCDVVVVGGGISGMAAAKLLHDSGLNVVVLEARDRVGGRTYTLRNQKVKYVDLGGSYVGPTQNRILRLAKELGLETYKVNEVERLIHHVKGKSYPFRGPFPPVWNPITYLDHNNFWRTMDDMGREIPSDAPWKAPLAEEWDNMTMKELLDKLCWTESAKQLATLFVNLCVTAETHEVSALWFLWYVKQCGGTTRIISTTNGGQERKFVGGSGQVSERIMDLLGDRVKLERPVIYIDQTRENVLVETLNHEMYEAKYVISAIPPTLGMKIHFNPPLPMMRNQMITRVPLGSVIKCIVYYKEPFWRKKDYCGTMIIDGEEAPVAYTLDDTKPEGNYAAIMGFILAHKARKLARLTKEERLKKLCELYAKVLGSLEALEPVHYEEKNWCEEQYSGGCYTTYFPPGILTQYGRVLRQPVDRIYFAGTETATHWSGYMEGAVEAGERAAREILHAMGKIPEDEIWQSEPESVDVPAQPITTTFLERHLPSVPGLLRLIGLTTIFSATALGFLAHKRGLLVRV
Experimental: as §2, §3, §4

| SMILES | effect on LNCaP proliferation and cell morphology (LNCaP cells [1]) | viability at 20 µM (LNCaP cells [1]) [%] | antiproliferative effect in screen (PC3 cells) | antiproliferative effect in screen (LNCaP cells [2]) | antiproliferative effect in screen (DU145 cells) | MAO isozyme selectivity (hMAO-A) | IC50 (hMAO-A) [nM] | IC50 (hMAO-B) [nM] | hMAO-A relative selectivity (RSA) (hMAO-A) [folds] |
| --- | --- | --- | --- | --- | --- | --- | --- | --- | --- |
| COc1cc(OC)c2c(=O)c(O)c(/C=C/c3cc(OC)c(OC)c(OC)c3)oc2c1 [KKR2A, (E)-3-hydroxy-5,7-dimethoxy-2-(3,4,5-trimethoxystyryl)-4H-chromen-4-one] | neither significant effects on LNCaP proliferation nor apparent changes in cell morphology | 96 | no effects on any of the screened PCa cell models | no effects on any of the screened PCa cell models | no effects on any of the screened PCa cell models | non-selective MAO inhibitory activity | 1030 ± 40 | 200 ± 20 |  |
| O=C(/C=C/c1ccccc1)c1cc(Cl)cc(Cl)c1O [KKR20, (E)-1-(3,5-dichloro-2-hydroxyphenyl)-3-phenylprop-2-en-1-one] | dramatically and differently altered cell morphology with a highly significant loss of proliferation | 26 |  | top five KKRs that kept standing out with antiproliferative effects |  | in favor to inhibit MAO-B | 2940 ± 390 | 790 ± 60 |  |
| O=c1cc(-c2ccccc2)oc2cc(Cl)c(Cl)cc12 [KKR21, 6,7-dichloro-2-phenyl-4H-chromen-4-one] | neither significant effects on LNCaP proliferation nor apparent changes in cell morphology | 94 | no effects on any of the screened PCa cell models | no effects on any of the screened PCa cell models | no effects on any of the screened PCa cell models | highly selective MAO-AIs | 19 | > 800000 | > 42105 |
| O=c1c(O)c(-c2ccccc2)oc2c(Cl)cc(Cl)cc12 [KKR7, 6,8-dichloro-3-hydroxy-2-phenyl-4H-chromen-4-one] | dramatically and differently altered cell morphology with a highly significant loss of proliferation | 25 |  |  | top effective | highly selective MAO-AIs | 16000 ± 530 | > 800000 | > 42105 |
| COc1cc(O)c(C(=O)/C=C/c2ccc(Cl)c(Cl)c2)c(OC)c1 [KKR11, (E)-3-(3,4-dichlorophenyl)-1-(2-hydroxy-4,6-dimethoxyphenyl)prop-2-en-1-one] | dramatically and differently altered cell morphology with a highly significant loss of proliferation | 11 |  | top five KKRs that kept standing out with antiproliferative effects | top effective | non-selective MAO-I | 310 ± 30 | 1120 ± 90 |  |
